{"source": "patent US20250082663A1", "about": "“COMPOUNDS AND METHODS FOR TREATING OR […] DOMINANT POLYCYSTIC KIDNEY DISEASE (ADPKD), AUTOSOMAL DOMINANT […] DISEASE (ADPLD) AND/OR AUTOSOMAL RECESSIVE POLYCYSTIC KIDNEY DISEASE (ARPKD)” (YALE UNIVERSITY, priority 2021, published 2025)", "key": {"[1]": {"system": "Pkd1^flox/flox; Pax8rtTA; tet-OCre mice", "assay": "Adult ADPKD model, complete loss of function (doxycycline-induced Pkd1 deletion)", "type": "in vivo, mouse", "conditions": "for KW/BW ratio: p=0.03", "excerpt": "FIGS. 19A-19B: Ire1α inhibitor improves disease progression in an adult ADPKD model. Adult onset model with complete loss of function (Pkd1fl/fl;Pax8rtTA;tet-OCre). […]\nThe present study first tested toyocamycin in Pkd1^flox/flox; Pax8rtTA; tet-OCre mice. […] […] The present study recapitulated these findings in another slow progressing adult ADPKD model. A compound mutant model with a floxed Pkd1 allele in trans with a human pathogenic hR2220W (mR2216W) missense mutation that causes defects in PC1 GPS cleavage and trafficking was used. Pkd1^R2216W/flox line was crossed with either Pkhd1-Cre or Pax8rtTA; Tet-OCre to generate neonatal or adult doxycycline inducible lines respectively."}, "[2]": {"target": "IRE1α kinase activity (Homo sapiens, UniProt O75460)", "sequence (O75460 19-977)": "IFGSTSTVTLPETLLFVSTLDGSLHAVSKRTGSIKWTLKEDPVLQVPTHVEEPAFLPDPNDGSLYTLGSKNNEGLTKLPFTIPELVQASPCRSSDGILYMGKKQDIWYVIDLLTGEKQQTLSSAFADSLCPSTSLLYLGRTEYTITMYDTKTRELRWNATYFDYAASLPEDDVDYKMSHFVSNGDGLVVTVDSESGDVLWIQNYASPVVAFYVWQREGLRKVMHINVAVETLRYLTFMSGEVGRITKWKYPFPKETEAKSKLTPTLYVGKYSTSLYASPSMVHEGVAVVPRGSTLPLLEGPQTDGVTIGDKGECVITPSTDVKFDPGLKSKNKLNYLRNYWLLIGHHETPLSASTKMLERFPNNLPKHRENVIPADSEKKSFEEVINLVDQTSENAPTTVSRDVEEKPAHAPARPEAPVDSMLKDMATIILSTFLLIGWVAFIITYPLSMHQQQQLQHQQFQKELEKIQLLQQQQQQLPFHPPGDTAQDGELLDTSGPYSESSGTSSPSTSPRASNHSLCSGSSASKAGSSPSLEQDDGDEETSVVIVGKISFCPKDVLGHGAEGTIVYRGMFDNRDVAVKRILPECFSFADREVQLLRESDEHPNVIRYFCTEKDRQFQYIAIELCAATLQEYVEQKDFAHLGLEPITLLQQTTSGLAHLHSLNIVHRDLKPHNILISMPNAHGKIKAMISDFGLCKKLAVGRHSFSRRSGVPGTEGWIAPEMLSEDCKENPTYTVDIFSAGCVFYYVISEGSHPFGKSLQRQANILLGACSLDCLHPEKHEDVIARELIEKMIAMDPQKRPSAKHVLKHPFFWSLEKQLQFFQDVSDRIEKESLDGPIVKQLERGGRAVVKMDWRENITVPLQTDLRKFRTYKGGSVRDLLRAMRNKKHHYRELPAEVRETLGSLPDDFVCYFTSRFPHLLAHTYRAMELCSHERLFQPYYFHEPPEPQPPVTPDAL", "conditions": "Ri, et al., 2012; cited from earlier work"}, "[3]": {"system": "Pkd1^R2216W/flox; Pax8rtTA; tet-OCre mice", "assay": "Adult ADPKD model with Pkd1 R2216W missense mutation in trans with floxed allele", "type": "in vivo, mouse", "experimental": "In order to examine whether this drug leads to disease modifying effects in the adult counterpart of this model, Pkd1^RW/fl; Pax8^rtTA; Tet-OCre mice were generated. In this mice the Cre recombinase is turned on throughout the nephron (except for the PT S3 segment) using a doxycycline inducible system. The mice received doxycycline in the drinking water from P28-P42to induce Cre and inactivate Pkd1 and were then injected with toyocamycin once every 2weeks starting at 6 weeks of age.\n(§1) The present study first tested toyocamycin in Pkd1^flox/flox; Pax8rtTA; tet-OCre mice. Animals were given doxycycline water between P28 to P42 then treatment was started from week 6 until week 18 (0.5 mg/kg; once every 2 weeks; 6 i.p. injections). […] The present study recapitulated these findings in another slow progressing adult ADPKD model. A compound mutant model with a floxed Pkd1 allele in trans with a human pathogenic hR2220W (mR2216W) missense mutation that causes defects in PC1 GPS cleavage and trafficking was used. Pkd1^R2216W/flox line was crossed with either Pkhd1-Cre or Pax8rtTA; Tet-OCre to generate neonatal or adult doxycycline inducible lines respectively.\nFinally, the present study examined the status of apoptosis in kidneys isolated from Pkd1^R2216W/flox; Pax8rtTA; tet-OCre mice treated with toyocamycin between week 12 to 18 (FIG. 34). […] Finally, the present study set forth to examine whether the effect seen in mice can be recapitulated with a relevant cell line model. Although cell line models for PKD are average mimics of the animal models, they do provide opportunities for a closer look at mechanisms of genotype-phenotype relationships in the context of programmed cell death. The present study used a previously described cell line i.e. PN24; Pkd1^−/−) as the starting point for inactivation of XBP1 via CRISPR/Cas9. At baseline, no differences in cell viability among the 3 genotypes i.e. Pkd1^het, Pkd1^−/−, and Pkd1/XBP1 DKO were observed. The present study then compared the response of Pkd1^+/−, Pkd1^−/−, and Pkd1/XBP1 DKO cells to a sensitized background induced by treatment with 11β-dichloro, an ROS inducer."}, "[4]": {"conditions": "Phase 1 trial; no changes in Hb, WBC, Pt, AP, SGOT and BUN; cited from earlier work"}, "[5]": {"system": "cystic cell", "assay": "Cystic cell viability (FIGS. 18A-18B)", "type": "cell-based"}, "[6]": {"target": "Ire1α endoribonuclease activity (Homo sapiens, UniProt O75460)", "sequence (O75460 19-977)": "as above", "conditions": "cited from earlier work"}, "[7]": {"system": "nucleotide incorporation", "conditions": "up to concentrations of 10 uM; cited from earlier work"}, "[8]": {"system": "Pkd1^R2216W/flox; Pkhd1-Cre mice", "assay": "Neonatal ADPKD model with Pkd1 R2216W missense mutation in trans with floxed allele", "type": "in vivo, mouse", "experimental": "Effect of toyocamycin were investigated in a relevant ADPKD model. For this a mouse model was constructed with a human Pkd1 missense mutation (R2216W) in trans with a floxed allele on a Pkhd1-Cre and Pax8-rtTA; tet-OCre background.\nas §1"}, "[9]": {"system": "PKD mice", "assay": "PKD mice / preclinical models, model not further specified", "type": "in vivo, mouse", "experimental": "FIGS. 22A-22C: Irela inhibitor prevents cyst growth in preclinical models.\nFIG. 36: Gene inactivation between P28 and P42. Treatment (0.5 mg/kg; 1×/2 wks) between 6-18 weeks of age.\nThe basal activity of spliced active XBP1s appears to be a protective survival factor for PC1-null cells that form cysts. […] Thus, specific pharmacological inhibition of the endoribonuclease activity of IRE1α, by inhibiting its ability to splice XBP1 to active XBP1s, should be beneficial in slowing cyst growth in ADPKD. This hypothesis was tested pharmacologically by inhibiting IRE1α endoribonuclease activity using toyocamycin, which is a potent IRE1α endoribonuclease inhibitor."}, "[10]": {"conditions": "0.5 mg/kg i.p. once every 2 weeks, between week 6 and 18 (6 doses), p<0.001"}, "[11]": {"conditions": "treatment from p9 to p16 (once/week), vs vehicle treated animals"}, "[12]": {"conditions": "mouse, in vivo, listed as Irela inhibitor"}}, "note": "“Also recorded” adds a separate entry of the source.", "data": [{"smiles": "N#Cc1cn([C@@H]2O[C@H](CO)C(O)C2O)c2ncnc(N)c12", "note": "(stereo partly drawn) [toyocamycin, 4-Aminopyrrolo[2,3-d]pyrimidine-5-carbonitrile 7-(β-D-ribofuranoside)]", "values": [{"measurement": "liver toxicity", "setting": "[1]; 0.5 mg/kg IP, 1×/week, from 13 wks until 18 wks", "value": "does not cause liver toxicity"}, {"measurement": "KW/BW ratio", "setting": "[1]; 0.5 mg/kg every 2 weeks between 12 and 18, FIGS. 31A-31B", "value": "decrease"}, {"measurement": "KW/BW ratio", "setting": "[1]; 0.5 mg/kg i.p. once every 2 weeks, week 6 until week 18, vs untreated mice", "value": "significant decrease"}, {"measurement": "disease progression", "setting": "[1]; treatment from 6 to 18 weeks, started immediately after gene inactivation", "value": "improves"}, {"measurement": "inhibition of IRE1α kinase activity", "setting": "[2]", "value": "does not inhibit"}, {"measurement": "BUN", "setting": "[3]; [10]", "value": "almost a complete rescue; also recorded: dramatic improvement"}, {"measurement": "KW/BW ratio", "setting": "[3]; [10]", "value": "almost a complete rescue; also recorded: dramatic improvement"}, {"measurement": "cyst growth", "setting": "[3]; 0.5 mg/kg, 1×/2 wks between 6-18 weeks of age", "value": "prevents"}, {"measurement": "apoptosis of cyst lining epithelia (TUNEL)", "setting": "[3]; 0.5 mg/kg, 1×/2 wks, listed as Ire1α inhibitor", "value": "causes apoptosis"}, {"measurement": "disease progression", "setting": "[3]; once every 2 weeks starting at 6 weeks of age, vs vehicle treated animals", "value": "almost complete inhibition"}, {"measurement": "effect in cells where Cre is not expressed (selectivity)", "setting": "[3]; preliminary analysis, data not shown", "value": "restricted to Pkd1 null segments"}, {"measurement": "apoptosis in kidneys (TUNEL)", "setting": "[3]; treated between week 12 to 18, proximal tubules marked by LTA", "value": "specific TUNEL-positive signal in cyst lining cells"}, {"measurement": "levels of spliced XBP1 (qPCR)", "setting": "[3]; treated vs. untreated mice, target engagement", "value": "lower; also recorded: decreased expression"}, {"measurement": "cystic phenotype (morphological and functional parameters)", "setting": "[3]; treatment from 6 weeks until 18 weeks age, FIG. 7", "value": "dramatic improvement"}, {"measurement": "body weight", "setting": "[3]; untreated vs. treated animals, once every 2 weeks, week 6 to 18", "value": "did not differ"}, {"measurement": "systemic side effects", "setting": "[4]", "value": "no apparent systemic side effects"}, {"measurement": "cystic cell viability", "setting": "[5]", "value": "inhibits"}, {"measurement": "inhibition of IRE1α endoribonuclease activity", "setting": "[6]; Ri, et al., 2012", "value": "potent inhibitor"}, {"measurement": "IC50", "setting": "[6]; in vitro, read-out: IC50, inhibition of Ire1α endoribonuclease activity", "value": "~100", "unit": "nM"}, {"measurement": "impact on nucleotide incorporation", "setting": "[7]", "value": "without any impact"}, {"measurement": "disease at P16", "setting": "[8]; 0.5 mg/kg at P10", "value": "significantly improved disease"}, {"measurement": "KW/BW ratio", "setting": "[8]; 1 dose 0.5 mg/kg i.p. at P10, assessed at P16, p<0.001", "value": "dramatic improvement"}, {"measurement": "BUN", "setting": "[8]; 1 dose 0.5 mg/kg i.p. at P10, assessed at P16, p<0.05", "value": "dramatic improvement"}, {"measurement": "cystic phenotype (morphological and functional parameters)", "setting": "[8]; FIG. 6", "value": "dramatic improvement"}, {"measurement": "BUN (marker of kidney function)", "setting": "[8]; [11]", "value": "dramatic decrease"}, {"measurement": "KW/BW ratio", "setting": "[8]; [11]", "value": "dramatic decrease"}, {"measurement": "dependence of the effect on Ire1", "setting": "[9]; FIG. 36, 0.5 mg/kg, 1×/2 wks between 6-18 weeks of age", "value": "depends on the presence of Ire1"}, {"measurement": "apoptosis in cyst cells with PC1 mutation", "setting": "[9]; FIGS. 22A-22C", "value": "Enhanced apoptosis"}, {"measurement": "systemic toxicity (body weight)", "setting": "[9]; FIGS. 22A-22C", "value": "No apparent systemic toxicity"}, {"measurement": "collagen deposition", "setting": "[9]; FIGS. 24A-24B", "value": "prevents"}, {"measurement": "BUN (kidney function)", "setting": "[9]; mouse, in vivo", "value": "reduction"}, {"measurement": "kidney to body weight ratio", "setting": "[9]; mouse, in vivo", "value": "dramatic reduction"}, {"measurement": "serum creatinine", "setting": "[9]; mouse, in vivo", "value": "reduction"}, {"measurement": "BUN (kidney function)", "setting": "[9]; [12]", "value": "Normalized kidney function"}, {"measurement": "kidney to body weight ratio", "setting": "[9]; [12]", "value": "Reduced cyst growth"}]}]}
